# Assays:
# Experiment in all cases: agar plate paper-disc inhibition zone screening
# Type in all cases: cell-based
# Aerobacter aerogenes = details: Klebsiella aerogenes, read-out: Inhibition Zone Diameter mm (Dose mg/ml) A. Aerogenes; for zone of inhibition at 3000 µg/mL: Dose 3.0 mg/ml; for zone of inhibition at 500 µg/mL: Dose 0.5 mg/ml
# Procedure: (§1) The bacterial and yeast isolates are maintained in agar slants or in liquid media, hereby designated as inoculum media. The cultures are transferred at regular intervals in such media. (See Table for the corresponding inoculum media of each culture.) The organisms are generally transferred on to agar slants or liquid inoculum media and incubated overnight (18-20 hours): 37°C for the bacterial isolates and 28°C for the fungal cultures.
# (§2) The microbial cells from the overnight agar slants are then scraped off and suspended in saline solution (0.85% NaCI). The microbial concentrations are adjusted to a light transmittancy of 20-35%, Junior Coleman Spectrophotometer (555 M). For the organisms that are maintained in liquid media, an aliquot of the culture suspension is simply diluted with saline to 20-35% light transmittancy.
# (§3) The above microbial suspension serve as inocula for the assay plates. Thus, 0.16-10 ml (see Table for exact amount) are used to inoculate 100 ml of the molten-agar assay medium.
# (§4) Stainless steel frames, 12.3 x 25.3 cm (ID) and glass plates, 15.3 x 31.7 cm are used to make the test trays. The frames are attached to the plates with tape at each end and the inner edges sealed with 2% agar. Twenty five ml of inoculated assay medium is spread evenly on each tray and allowed to solidify. The trays are covered, inverted, and refrigerated until used.
# (§5) The compounds or samples to be tested are dissolved in suitable solvents, e.g., alcohols, dimethylsulfoxide, or N,N-dimethylformamide. The samples are generally dissolved so that the final concentration of the solvent is <10%.^* The compounds are tested at different concentrations: 3,000; 1,000; 500; 100; and 10 mcg/ml. Paper discs (12.7 mm diameter) are placed on the agar trays with forceps, then 0.08 ml of the dissolved compound is pipetted onto each disc using a 0.2 ml pipette.
# (§6) The disked agar trays are incubated overnight (18-20 hours) at 37°C for the bacterial cultures and 28°C for the yeasts. The Penicillium avellaneium tray is incubated for at least […] since it is a slower- growing organism.
# (§7) Active compounds show a zone of inhibition around the disc. The diameter of the zone is measured in mm. The zone diameter of active compounds ranges from a minimum of 13.5 mm to as high as 60 mm. The size of the zone diameter generally reflects the activity of the compound: the larger the zone the greater the activity.
# Bacillus subtilis = details: read-out: Inhibition Zone Diameter mm (Dose mg/ml) B. Subtilis; for zone of inhibition at 3000 µg/mL: Dose 3.0 mg/ml; for zone of inhibition at 1000 µg/mL: Dose 1.0 mg/ml; for zone of inhibition at 100 µg/mL: Dose 0.1 mg/ml; for zone of inhibition at 500 µg/mL: Dose 0.5 mg/ml
# Procedure: as §1, §2, §3, §4, §5, §6, §7
# Escherichia coli = details: read-out: Inhibition Zone Diameter mm (Dose mg/ml) E. Coli; for zone of inhibition at 3000 µg/mL: Dose 3.0 mg/ml; for zone of inhibition at 1000 µg/mL: Dose 1.0 mg/ml; for zone of inhibition at 500 µg/mL: Dose 0.5 mg/ml
# Procedure: as §1, §2, §3, §4, §5, §6, §7
# Streptococcus faecalis = details: Enterococcus faecalis, read-out: Inhibition Zone Diameter mm (Dose mg/ml) S. Faecalis; for zone of inhibition at 3000 µg/mL: Dose 3.0 mg/ml; for zone of inhibition at 1000 µg/mL: Dose 1.0 mg/ml
# Procedure: as §1, §2, §3, §4, §5, §6, §7
# Penicillium avellaneum = details: Hamigera avellanea, read-out: Inhibition Zone Diameter mm (Dose mg/ml) P. Avellaneum; for zone of inhibition at 3000 µg/mL: Dose 3.0 mg/ml; for zone of inhibition at 500 µg/mL: Dose 0.5 mg/ml
# Procedure: The Penicillium avellaneum is grown for six days, at 28°C, on an agar medium. This is to allow sporulation of the culture. The organism is then harvested by scraping off the cells from the agar surface (mycelia and spores) and suspending them in saline solution containing 0.05% Tween 80.
# The suspension is adjusted to a light transmittancy of 20%. One ml of this suspension is used to inoculate 100 ml of the molten-agar assay medium.
# as §4, §5, §6, §7
SMILES,zone of inhibition at 3000 µg/mL (Aerobacter aerogenes) [mm],zone of inhibition at 3000 µg/mL (Bacillus subtilis) [mm],zone of inhibition at 3000 µg/mL (Escherichia coli) [mm],zone of inhibition at 3000 µg/mL (Streptococcus faecalis) [mm],zone of inhibition at 3000 µg/mL (Penicillium avellaneum) [mm],zone of inhibition at 1000 µg/mL (Escherichia coli) [mm],zone of inhibition at 500 µg/mL (Penicillium avellaneum) [mm],zone of inhibition at 500 µg/mL (Escherichia coli) [mm],zone of inhibition at 1000 µg/mL (Bacillus subtilis) [mm],zone of inhibition at 500 µg/mL (Aerobacter aerogenes) [mm],zone of inhibition at 100 µg/mL (Bacillus subtilis) [mm],zone of inhibition at 1000 µg/mL (Aerobacter aerogenes; Dose 1.0 mg/ml) [mm],zone of inhibition at 500 µg/mL (Bacillus subtilis) [mm],zone of inhibition at 1000 µg/mL (Streptococcus faecalis) [mm]
"CN(C)CCNCCn1nc2c3c(c(Cl)ccc31)C(=O)c1c(O)ccc(O)c1-2 [7,10-(OH)2; Cl*; (CH2)2NH(CH2)2NMe2, 5-Chloro-2-[2-[[2-(dimethylamino)ethyl]amino]ethyl]-7,10-dihydroxyanthra[1,9-cd]pyrazol-6(2H)-one]",0,14,0,0,0,,,,,,,,,
"CN(C)CCn1nc2c3c(c(Cl)ccc31)C(=O)c1c(O)ccc(O)c1-2 [7,10-(OH)2; Cl*; (CH2)2NMe2, 5-Chloro-2-[2-(dimethylamino)ethyl]-7,10-dihydroxyanthra[1,9-cd]pyrazol-6(2H)-one]",15,0,,0,,14,15,,,,,,,
"CCN(CC)CC(O)Cn1nc2c3c(c(Cl)ccc31)C(=O)c1c(O)ccc(O)c1-2 (stereo not shown) [7,10-(OH)2; Cl*; CH2CHOHCH2NEt2, 5-Chloro-2-[3-(diethylamino)-2-hydroxypropyl]-7,10-dihydroxyanthra[1,9-cd]pyrazol-6(2H)-one]",0,14,,14,14,,,14,,,,,,
"CN(CCO)CCn1nc2c3c(c(Cl)ccc31)C(=O)c1c(O)ccc(O)c1-2 [7,10-(OH)2; Cl*; Me | (CH2)2N (CH2)2OH, 5-Chloro-7,10-dihydroxy-2-[2-[(2-hydroxyethyl)methylamino]ethyl]anthra[1,9-cd]pyrazol-6(2H)-one]",0,0,14,0,0,,,,,,,,,
"CCCCCCNc1ccc2c3c(nn2CCN(CC)CC)-c2ccccc2C(=O)c13 [Example 8, 2-[2-(Diethylamino)ethyl]-5-(hexylamino)anthra[1,9-cd]pyrazol-6(2H)-one]",0,,0,0,16,,,,16,,,,,
"O=C1c2ccccc2-c2nn(CCO)c3ccc(NCCNCCO)c1c23 [Example 12, 2-(2-Hydroxyethyl)-5-[[2-[(2-hydroxyethyl)amino]ethyl]amino]anthra[1,9-cd]pyrazol-6(2H)-one]",,,14,16,0,,,,,14,14,,,
"O=C1c2ccccc2-c2nn(CCO)c3ccc(NCCN4CCOCC4)c1c23 [Example 14, 2-(2-Hydroxyethyl)-5-[[2-(4-morpholinyl)ethyl]amino][1,9-cd]pyrazol-6(2H)-one]",0,,16,0,0,,,,16,,,,,
"CCN(CC)CCCCNc1ccc2c3c(nn2CCO)-c2ccccc2C(=O)c13 [Example 16, 5-[[4-(Diethylamino)butyl]amino]-2-(2-hydroxyethyl)anthra[1,9-cd]pyrazol-6(2H)-one]",0,,0,0,0,,,,25,,,,,
"CCN(CC)CCCCCCCNc1ccc2c3c(nn2CCO)-c2ccccc2C(=O)c13 [Example 17, 5-[[7-(Diethylamino)heptyl]amino]-2-(2-hydroxyethyl)anthra[1,9-cd]pyrazol-6(2H)-one]",0,,0,0,0,,,,20,,,,,
"O=C1c2ccccc2-c2nn(CCNCCO)c3ccc(NCCO)c1c23 [Example 24, 5-[(2-Hydroxyethyl)amino]-2-[2-[(2-hydroxyethyl)amino]ethyl]anthra[1,9-cd]pyrazol-6(2H)-one]",,,,,0,,,15,,,,14,18,14
"Cn1nc2c3c(c(NCCN)ccc31)C(=O)c1c(O)ccc(O)c1-2 [Example 40, 5-[(2-Aminoethyl)amino]-7,10-dihydroxy-2-methylanthra[1,9-cd]pyrazol-6(2H)-one]",14,0,14,14,0,,,,,,,,,
"CCN(CC)CCn1nc2c3c(c(Cl)ccc31)C(=O)c1c(O)ccc(O)c1-2 [Example 49, 5-Chloro-2-[2-(diethylamino)ethyl]-7,1 0-dihydroxyanthra[1,9-cd] pyrazol-6(2H)-one]",0,,0,0,16,,,,14,,,,,
"O=C1c2c(O)ccc(O)c2-c2nn(CCNCCO)c3ccc(NCCN4CCOCC4)c1c23 [Example 61, 7,10-Dihydroxy-2-[2-[(2-hydroxyethyl)amino]ethyl]-5-[[2-(4-morpholinyl)ethyl]amino]anthra[1,9-cd]pyrazol-6(2H)-one]",0,,14,0,0,,,,15,,,,,
"NCCNc1ccc2c3c(nn2CCN)-c2c(O)ccc(O)c2C(=O)c13 [Example 72, 2-(2-Aminoethyl)-5-[(2-aminoethyl)amino]-7,10-dihydroxyanthra[1,9-cd]pyrazol-6(2H)-one]",14,0,0,0,0,,,,,,,,,
"COCCn1nc2c3c(c(NCCN)ccc31)C(=O)c1c(O)ccc(O)c1-2 [Example 77, 5-[(2-Aminoethyl)amino]-7,10-dihydroxy-2-(2-methoxyethyl)anthra(1,9-cd]pyrazol-6(2H)-one]",14,16,16,0,0,,,,,,,,,
"O=C1c2c(NCCNCCO)cccc2-c2nn(CCNCCO)c3cccc1c23 [Example 81, 2-[2-[(2-Hydroxyethyl)amino]lethyl]-7-[[2-[(2-hydroxyethyl)amino]ethyl]amino]anthra[1,9-cd]pyrazol-6(2H)-one]",,,,0,0,20,,,,17,,,16,
"CCN(CC)CCn1nc2c3c(c(Cl)ccc31)C(=O)c1ccccc1-2 [H; Cl*; (CH2)2NEt2, 5-Chloro-2-[2-(diethylamino)ethyl]anthra[1,9-cd]pyrazol-6(2H)-one]",,,,,,,16,14,,14,16,,,16

# From EP0103381B1, “Substituted anthra(1,9-cd)pyrazol-6(2H)-ones” (WARNER-LAMBERT COMPANY, priority 1982, dated 1984)
